Laboratory results: publication PMC4669722, “Antitumour potential of BPT: a dual inhibitor of cdk4 and tubulin polymerization” (Cell Death & Disease, 2015)
Like-named read-outs stand apart in the source and are kept apart here.

Legend:
[1] = tested on: PC-3 (prostate; p53 null, pRb+); test: Cell proliferation (MTT) assay, PC-3; assay type: cell-based; conditions: Homo sapiens, 48 h, read-out: IC50 cell growth inhibition, PC-3
Method: (§1) All 10 human cancer cell lines were maintained at 37 °C in 5% CO2 in RPMI-1640 medium, supplemented with 10% foetal calf serum and 100 μg/ml normocin. The 10 cancer cell lines used for screening were all obtained from ATCC (Manassas, VA, USA); they were the NSCLC (a form of cancer that is resistant to chemotherapy) lines: NCI-H460 (pRb^+, p53^+), A549 (pRb^+, p53^+), Calu-1 (pRb^+, p53-null), NCI-H1299 (pRb^+, p53-null), NCI-H358 (pRb-null, p53-null); the colon cancer line LS174T (pRb^+, p53^+); the prostate cancer line PC-3 (pRb^+, p53-null); the pancreatic cancer line MiaPaca (pRb^+, p53-mutant). The genotypes within brackets indicate the status of the tumour suppressor proteins pRb and p53. The mouse embryonic normal hepatic cell line (BNL CL2) and its SV40 large T-antigen-transformed counterpart cell line (BNL SV A.8) were also purchased from ATCC. The large T-antigen inactivates the tumour suppressor proteins p53 and pRb. The detailed procedure of cell proliferation (MTT) assay and IC50 determination was described previously.[32]

[2] = tested on: Calu-1 (NSCLC; p53 null, pRb+); test: Cell proliferation (MTT) assay, Calu-1; assay type: cell-based, human; conditions: Homo sapiens, Calu-1; 48 h, MTT; read-out: IC50 cell growth inhibition, Calu-1
Method: as §1

Cdk1-cyclin B1 = Cdk1-cyclin B1 (Homo sapiens, UniProt P06493); test: In vitro kinase assay, Cdk1-cyclin B1 (in-house); assay type: biochemical; conditions: three independent experiments; read-out: IC50 (mean±S.D.), Cdk1-cyclin B1
Method: (§2) The in vitro kinase assays for testing against Cdk4-cyclin D1, Cdk2-cyclin A, Cdk1-cyclin B1 and Cdk9-cyclin T1 were performed in-house. The methodology and results have been reported previously.[20], [30], [31], [32], [45] The kinase profiling for 58 representative kinases was carrried out commercially at Millipore Bioscience Division, Livingston, UK.

Cdk9-cyclin T1 = Cdk9-cyclin T1 (Homo sapiens, UniProt P50750); test: In vitro kinase assay, Cdk9-cyclin T1 (in-house); assay type: biochemical; conditions: three independent experiments; read-out: IC50 (mean±S.D.), Cdk9-cyclin T1
Method: as §2

pBluescript plasmid DNA [3] = test: Topoisomerase I catalysed DNA relaxation or unwinding assay; assay type: biochemical
Method: For assay, 5 nM supercoiled pBluescript d-s plasmid DNA and 10 U of topoisomerase-I active enzyme were used in each reaction well. To ensure that the assay determines the DNA-intercalating property of compounds and not topoisomerase I inhibition, in a parallel experiment relaxed plasmid DNA was first prepared by treating with topo I enzyme for 30 min and then used as an initial substrate for the assay. DNA relaxation assays were performed in the presence or absence of compounds in 40 μl of DNA unwinding assay buffer. After 30 min incubation at 37 °C, reaction mixtures were treated with 3 μl of 250 mM EDTA and extracted with phenol/chloroform. The DNA was dissolved in tris-EDTA buffer, pH 8.0. The samples (20 μl) were treated with 2 μl of 2.5% SDS, mixed with 2.5 μl agarose gel loading buffer (10x) and subjected to electrophoresis on a 0.8% agarose gel without EtBr (separating the DNA in the presence of EtBr would convert the relaxed DNA into the supercoiled form). After the electrophoretic separation, DNA bands were stained with 1 μg/ml EtBr and visualized using a UV illuminator. The compounds were compared with fascaplysin, which is a known DNA-intercalating molecule. Camptothecin, which is a known topoisomerase- I inhibitor, was used to test the activity and inhibition of enzyme.

Cdk2-cyclin A = Cdk2-cyclin A (Homo sapiens, UniProt P24941); test: In vitro kinase assay, Cdk2-cyclin A (in-house); assay type: biochemical
Method: as §2

Cdk4-cyclin D1 [4] = biological target: T1, Cdk4-cyclin D1 (Homo sapiens, UniProt P11802); set-up: method as in PMID 12941311, PMID 15165138; conditions: cited from earlier work
pBluescript plasmid DNA [5] = test: EtBr displacement assay; assay type: binding; conditions: 1.3 μM EtBr
Method: The assays were performed in a 96-well plate with clear bottom (Costar, Washington, DC, USA). The assay involved the addition of 10 μl of 10 × concentrated stock solution of compounds (dissolved in DMSO and further diluted in EtBr displacement assay buffer) to 90 μl of reaction mixture containing 6 μg of purified pBlueScript DNA and 1.3 μM EtBr in EtBr displacement assay buffer with final pH 7.4. Equivalent amounts of DMSO were added to the vehicle controls. In addition to control samples (DNA+EtBr), test samples (DNA+EtBr+test compounds), blank 1 (EtBr only), blank 2 (DNA only), wells containing DNA and compound were also prepared to test any change in the background fluorescence readings. The reduction in relative fluorescence counts was monitored ([…]) and recorded after 1 min equilibration time. Fascaplysin and actinomycin D, which are known to intercalate d-s DNA, were used as standard compounds in assay. The mean control and test readings were corrected by subtracting blank readings. The percentage fluorescence in the test samples in reaction with control samples was calculated by using following formula: […]

[6] = tested on: MiaPaCa (pancreatic; p53His273mut, pRb+); test: Cell proliferation (MTT) assay, MiaPaCa; assay type: cell-based; conditions: Homo sapiens, MIA PaCa-2, 48 h, read-out: IC50 cell growth inhibition, MiaPaCa
Method: as §1

[7] = tested on: LS174T (colorectal carcinoma; p53+, pRb+); test: Cell proliferation (MTT) assay, LS174T; assay type: cell-based; conditions: Homo sapiens, 48 h, read-out: IC50 cell growth inhibition, LS174T
Method: as §1

A549 (NSCLC; p53+, pRb+) = test: Cell proliferation (MTT) assay, A549; assay type: cell-based; conditions: Homo sapiens, 48 h, read-out: IC50 cell growth inhibition, A549
Method: as §1

[8] = tested on: BNL SV A.8 (mouse hepatic; SV40-mediated transformed cells); test: Cell proliferation (MTT) assay, BNL SV A.8; assay type: cell-based; conditions: Mus musculus; 48 h, MTT; read-out: IC50 cell growth inhibition, BNL SV A.8
Method: as §1

[9] = tested on: NCI-H358 (NSCLC; p53 null, pRb null); test: Cell proliferation (MTT) assay, NCI-H358; assay type: cell-based; conditions: Homo sapiens, 48 h, read-out: IC50 cell growth inhibition, NCI-H358
Method: as §1

[10] = tested on: NCI-H460 (NSCLC; p53+, pRb+); test: Cell proliferation (MTT) assay, NCI-H460; assay type: cell-based; conditions: Homo sapiens, 48 h, read-out: IC50 cell growth inhibition, NCI-H460
Method: as §1

[11] = tested on: BNL CL2 (mouse normal hepatic cells); test: Cell proliferation (MTT) assay, BNL CL2; assay type: cell-based; conditions: Mus musculus, BNL CL.2; 48 h, MTT; read-out: IC50 cell growth inhibition, BNL CL2
Method: as §1

[12] = tested on: NCI-H1299 (NSCLC; p53 null, pRb+); test: Cell proliferation (MTT) assay, NCI-H1299; assay type: cell-based; conditions: Homo sapiens, 48 h, read-out: IC50 cell growth inhibition, NCI-H1299
Method: as §1

Cdk4-cyclin D1 [13] = biological target: T1, Cdk4-cyclin D1; test: In vitro kinase assay, Cdk4-cyclin D1 (in-house); assay type: biochemical; conditions: three independent experiments; read-out: IC50 (mean±S.D.), Cdk4-cyclin D1
Method: as §2

tubulin = test: Cell-free tubulin polymerization assay in vitro; assay type: biochemical; conditions: 10 μM; control 19 mOD/min
Method: The purified tubulin was obtained commercially (Cytoskeleton Inc., Denver, CO, USA) and the polymerization assays were carried out according to the method described previously.[36] […] The resulting polymerization curves are representative of the three phases of microtubule polymerization, namely nucleation, growth and steady-state equilibrium. Paclitaxel and nocodazole were used in the assay as a known enhancer and inhibitor of tubulin polymerization, respectively. The ability of BPT to inhibit tubulin polymerization in vitro was determined according to the manufacturer's instructions. Briefly, tubulin protein (3 mg/ml) was polymerized in GTP buffer (80 mM PIPES, pH 6.9, 2 mM MgCl2, 0.5 mM EGTA, 10.2% glycerol and 1 mM GTP) in the presence of a range of BPT concentrations at 37 °C in a temperature-regulated Biotech spectrophotometer (Potton, Bedfordshire, UK). The absorbance (at 340 nm) kinetics of 61 cycles for each sample was studied and the readings were recorded at an interval of 1 min.

[14] = three independent experiments, read-out: IC50 (mean±S.D.), Cdk2-cyclin A

Cdk1-cyclin B1, sequence (P06493 whole entry): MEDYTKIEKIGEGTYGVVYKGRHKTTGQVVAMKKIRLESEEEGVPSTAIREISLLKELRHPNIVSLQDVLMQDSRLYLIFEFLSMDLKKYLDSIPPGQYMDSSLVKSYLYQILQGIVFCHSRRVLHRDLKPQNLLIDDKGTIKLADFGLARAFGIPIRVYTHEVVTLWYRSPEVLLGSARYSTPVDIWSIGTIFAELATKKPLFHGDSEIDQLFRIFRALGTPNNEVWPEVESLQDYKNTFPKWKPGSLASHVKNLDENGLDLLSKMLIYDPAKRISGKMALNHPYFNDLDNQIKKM
Cdk1-cyclin B1, sequence (P14635 whole entry partner): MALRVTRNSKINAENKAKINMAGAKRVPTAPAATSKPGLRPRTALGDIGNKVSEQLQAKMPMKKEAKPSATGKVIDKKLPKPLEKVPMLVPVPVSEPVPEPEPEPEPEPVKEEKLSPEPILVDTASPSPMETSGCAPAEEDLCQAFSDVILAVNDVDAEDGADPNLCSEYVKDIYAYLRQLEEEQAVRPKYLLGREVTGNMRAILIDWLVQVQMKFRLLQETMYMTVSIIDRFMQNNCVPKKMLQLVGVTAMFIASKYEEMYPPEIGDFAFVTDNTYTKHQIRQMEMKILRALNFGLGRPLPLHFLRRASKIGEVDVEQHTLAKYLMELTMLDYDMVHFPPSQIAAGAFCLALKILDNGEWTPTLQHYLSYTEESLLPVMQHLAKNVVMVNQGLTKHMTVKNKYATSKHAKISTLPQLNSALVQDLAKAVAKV
T1 sequence (P11802 whole entry): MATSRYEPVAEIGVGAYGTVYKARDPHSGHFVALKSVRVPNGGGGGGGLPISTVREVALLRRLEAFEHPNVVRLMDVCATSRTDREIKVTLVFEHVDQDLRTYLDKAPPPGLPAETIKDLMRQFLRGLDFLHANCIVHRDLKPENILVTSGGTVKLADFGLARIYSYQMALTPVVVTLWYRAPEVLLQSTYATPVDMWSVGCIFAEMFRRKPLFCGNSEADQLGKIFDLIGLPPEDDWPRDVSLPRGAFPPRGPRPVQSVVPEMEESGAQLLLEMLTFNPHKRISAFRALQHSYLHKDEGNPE
T1 sequence (P24385 whole entry partner): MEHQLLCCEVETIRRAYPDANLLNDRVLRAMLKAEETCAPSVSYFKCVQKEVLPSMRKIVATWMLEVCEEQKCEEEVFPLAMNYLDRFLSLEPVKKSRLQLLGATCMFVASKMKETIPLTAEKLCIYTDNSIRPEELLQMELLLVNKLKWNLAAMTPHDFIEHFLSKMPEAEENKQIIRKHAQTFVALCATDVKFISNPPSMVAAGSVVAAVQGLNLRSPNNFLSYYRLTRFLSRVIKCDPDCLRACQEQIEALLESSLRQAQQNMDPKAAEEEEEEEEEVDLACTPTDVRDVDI
Cdk9-cyclin T1, sequence (P50750 whole entry): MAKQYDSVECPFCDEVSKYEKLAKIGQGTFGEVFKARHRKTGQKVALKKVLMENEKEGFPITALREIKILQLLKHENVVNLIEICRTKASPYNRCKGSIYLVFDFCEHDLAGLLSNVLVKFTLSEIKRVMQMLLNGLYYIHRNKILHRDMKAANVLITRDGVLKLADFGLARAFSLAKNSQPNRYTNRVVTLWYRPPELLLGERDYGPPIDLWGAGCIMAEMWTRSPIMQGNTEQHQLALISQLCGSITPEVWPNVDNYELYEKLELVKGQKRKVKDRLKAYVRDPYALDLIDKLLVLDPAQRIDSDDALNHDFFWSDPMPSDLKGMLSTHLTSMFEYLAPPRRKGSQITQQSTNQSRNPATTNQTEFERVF
Cdk9-cyclin T1, sequence (O60563 whole entry partner): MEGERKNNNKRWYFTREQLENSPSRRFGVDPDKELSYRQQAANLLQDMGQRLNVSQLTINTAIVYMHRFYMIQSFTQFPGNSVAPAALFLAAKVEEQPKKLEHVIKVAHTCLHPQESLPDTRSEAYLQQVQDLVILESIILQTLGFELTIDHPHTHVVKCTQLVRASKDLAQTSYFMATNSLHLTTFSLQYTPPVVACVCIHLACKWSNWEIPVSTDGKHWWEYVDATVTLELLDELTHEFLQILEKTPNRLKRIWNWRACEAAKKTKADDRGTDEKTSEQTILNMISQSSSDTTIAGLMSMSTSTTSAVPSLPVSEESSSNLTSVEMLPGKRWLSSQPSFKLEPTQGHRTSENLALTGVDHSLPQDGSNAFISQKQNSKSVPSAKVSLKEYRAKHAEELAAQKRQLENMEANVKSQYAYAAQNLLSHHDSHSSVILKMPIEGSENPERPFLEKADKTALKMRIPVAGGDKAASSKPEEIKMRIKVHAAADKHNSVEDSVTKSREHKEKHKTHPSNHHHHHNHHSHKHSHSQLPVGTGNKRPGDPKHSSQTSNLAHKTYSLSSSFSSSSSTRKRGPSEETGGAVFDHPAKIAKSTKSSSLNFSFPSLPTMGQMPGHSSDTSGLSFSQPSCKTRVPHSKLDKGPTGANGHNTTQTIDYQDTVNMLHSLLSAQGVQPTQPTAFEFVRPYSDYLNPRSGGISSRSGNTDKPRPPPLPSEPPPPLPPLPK

Compound	IC50 [1] [µM]	IC50 [2] [µM]	IC50 (Cdk1-cyclin B1) [µM]	IC50 (Cdk9-cyclin T1) [µM]	EtBr displacement from DNA (pBluescript plasmid DNA [5]; pH 7.4)	IC50 [6] [µM]	IC50 [7] [µM]	IC50 (A549 (NSCLC; p53+, pRb+)) [µM]	IC50 [8] [µM]	IC50 [9] [µM]	IC50 [10] [µM]	IC50 [11] [µM]	IC50 [12] [µM]	IC50 (Cdk2-cyclin A; [14]) [µM]	IC50 (Cdk4-cyclin D1 [13]) [µM]	other results
O=C1c2ccccc2-[n+]2ccc3c([nH]c4ccccc43)c21 [Fascaplysin, fascaplysin, reference compound]	0.92	1.3	> 250	> 250	Displaces EtBr at 1 μM	0.88	0.88	0.69	–	–	–	–	–	–	–	state of relaxed (negatively supercoiled) plasmid DNA after treatment (pBluescript plasmid DNA [3]; relaxed pBluescript DNA as substrate, BPT up to 100 μM, fascaplysin 1 μM): does not remain intact; hindrance of topoisomerase-I catalysed DNA relaxation (pBluescript plasmid DNA [3]; supercoiled pBluescript DNA, fascaplysin 10 and 1 µM, BPT 10 and 100 µM): hinder topoisomerase-I catalysed DNA relaxation; IC50 (Cdk2-cyclin A): > 250 µM; IC50 (Cdk4-cyclin D1 [4]): ~0.35 µM; EtBr displacement from DNA (pBluescript plasmid DNA [5]; pH 7.4, listed as fascaplysin): readily dislodges the bound EtBr
CC(C)(C)c1ccc(C(=O)N2CCc3c([nH]c4ccccc34)C2)cc1 [CA211]	32	54	> 500	> 1000	No EtBr displacement up to 100 μM	29	29	31	35	25	22	27	30	720 ± 24	44 ± 3	–
COC(=O)Nc1nc2ccc(C(=O)c3cccs3)cc2[nH]1 [Nocodazole, nocodazole, reference compound]	–	–	–	–	–	–	–	–	–	–	–	–	–	–	–	Vmax of tubulin polymerization (tubulin): 4.5 mOD/min
COc1ccccc1C(=O)N1CCc2c([nH]c3ccccc23)C1 [CA198]	42	92	> 500	> 1000	No EtBr displacement up to 100 μM	43	33	46	40	28	29	37	35	861 ± 29	25 ± 5.5	–
